# Patent US20240158446A1, “CYCLIC COMPOUND HAVING SELECTIVE INHIBITORY ACTION ON KRAS OVER HRAS AND NRAS” (CHUGAI SEIYAKU KABUSHIKI KAISHA, priority 2021, published 2024)
# Where a SMILES comes first, the peptide text is derived from it. Bridges are numbered along the chain shown (N, C = ends). [ ]: non-standard residue; d: D form. The star is where a group is joined. hPhe(3-Cl-4-CF3) = N[C@@H](CCc1ccc(C(F)(F)F)c(Cl)c1)C(=O)O; NPrPhe(4-CF3) = CCCN[C@@H](Cc1ccc(C(F)(F)F)cc1)C(=O)O; NMeGly(cPent) = CN[C@H](C(=O)O)C1CCCC1; Pro(4,4-F2) = O=C(O)[C@@H]1CC(F)(F)CN1; Hyp = O=C(O)[C@@H]1C[C@@H](O)CN1; NMeD = CN[C@@H](CC(=O)O)C(=O)O; NMeL = CN[C@@H](CC(C)C)C(=O)O; Morpholide = C1CN(*)CCO1; NMeA = CN[C@@H](C)C(=O)O; Ac5c = NC1(C(=O)O)CCCC1; Aze = O=C(O)[C@@H]1CCN1; Ac4c = NC1(C(=O)O)CCC1; NEtG = CCNCC(=O)O; Sar = CNCC(=O)O
# How the values were obtained:
# [1] = molecular target: GDP-bound HRAS wild-type protein (Homo sapiens, UniProt P01112); assay: Binding to HRAS by surface plasmon resonance (SPR), Single Cycle Kinetics; conditions: SPR, GDP-bound HRAS wild-type protein vs GDP-bound KRAS wild-type protein
# GDP-bound HRAS wild-type protein, sequence (P01112 whole entry): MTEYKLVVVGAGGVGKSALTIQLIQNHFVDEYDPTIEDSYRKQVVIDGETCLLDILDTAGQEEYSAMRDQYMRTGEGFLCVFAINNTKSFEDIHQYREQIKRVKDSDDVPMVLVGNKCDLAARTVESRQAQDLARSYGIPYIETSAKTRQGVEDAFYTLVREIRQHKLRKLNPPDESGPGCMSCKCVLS
# [2] = molecular target: GDP-bound NRAS wild-type protein (Homo sapiens, UniProt P01111); assay: Binding to NRAS by surface plasmon resonance (SPR), Single Cycle Kinetics; conditions: SPR, GDP-bound NRAS wild-type protein vs GDP-bound KRAS wild-type protein
# GDP-bound NRAS wild-type protein, sequence (P01111 whole entry): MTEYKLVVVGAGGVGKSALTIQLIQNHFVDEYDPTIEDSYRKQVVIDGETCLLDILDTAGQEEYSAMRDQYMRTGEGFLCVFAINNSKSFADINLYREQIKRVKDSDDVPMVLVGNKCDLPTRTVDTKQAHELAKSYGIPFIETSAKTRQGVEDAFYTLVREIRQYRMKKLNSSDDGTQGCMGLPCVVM
# [3] = molecular target: GDP-bound KRAS wild-type protein (Homo sapiens, UniProt P01116); assay: Binding to KRAS by surface plasmon resonance (SPR), Single Cycle Kinetics; conditions: SPR Single Cycle Kinetics, GDP-bound KRAS wild-type protein, 1:1 binding model; read-out: KRAS KD
# GDP-bound KRAS wild-type protein, sequence (P01116 whole entry): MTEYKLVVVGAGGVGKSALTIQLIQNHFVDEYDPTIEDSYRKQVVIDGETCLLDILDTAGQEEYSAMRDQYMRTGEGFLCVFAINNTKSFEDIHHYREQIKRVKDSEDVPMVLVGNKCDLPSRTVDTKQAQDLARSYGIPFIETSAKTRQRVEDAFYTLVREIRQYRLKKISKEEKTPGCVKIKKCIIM
SMILES,Kd [3] [nM],HRAS/KRAS (ratio of KD value for HRAS to KD value for KRAS) [1],NRAS/KRAS (ratio of KD value for NRAS to KD value for KRAS) [2],HRAS/KRAS (ratio of KD value with respect to HRAS to KD value with respect to KRAS) [1],NRAS/KRAS (ratio of KD value with respect to NRAS to KD value with respect to KRAS) [2]
CCCN1C(=O)CN(C)C(=O)CNC(=O)[C@H]([C@@H](C)CC)NC(=O)[C@H](CC(C)C)N(C)C(=O)C[C@@H](C(=O)N2CCOCC2)N(C)C(=O)[C@H](C2CCCC2)N(C)C(=O)C2(CCCC2)NC(=O)[C@@H]2C[C@@H](OCC)CN2C(=O)[C@H](CCc2ccc(C(F)(F)F)c(Cl)c2)NC(=O)CN(C)C(=O)[C@@H]1Cc1ccc(C(F)(F)F)cc1 [PP0396] ([NMeL]IG[Sar][NPrPhe(4-CF3)][Sar][hPhe(3-Cl-4-CF3)][Hyp](Et)[Ac5c][NMeGly(cPent)][NMeD]-Morpholide; lactam N-11),0.13,C (A compound having a KD ratio of 0.1 or more and less than 3 is denoted as C),B (a compound having 3 or more and less than 10 is denoted as B),,
CCCN1C(=O)CN(C)C(=O)CNC(=O)[C@H]([C@@H](C)CC)NC(=O)[C@H](CC(C)C)N(C)C(=O)C[C@@H](C(=O)N2CCOCC2)N(C)C(=O)[C@H](C2CCCC2)N(C)C(=O)C2(CCC2)NC(=O)[C@@H]2C[C@@H](OCC)CN2C(=O)[C@H](CCc2ccc(C(F)(F)F)c(Cl)c2)NC(=O)CN(C)C(=O)[C@@H]1Cc1ccc(C(F)(F)F)cc1 [PP0397] ([NMeL]IG[Sar][NPrPhe(4-CF3)][Sar][hPhe(3-Cl-4-CF3)][Hyp](Et)[Ac4c][NMeGly(cPent)][NMeD]-Morpholide; lactam N-11),0.12,C (A compound having a KD ratio of 0.1 or more and less than 3 is denoted as C),C (A compound having a KD ratio of 0.1 or more and less than 3 is denoted as C),,
"CCCN1C(=O)CN(C)C(=O)CN(CC)C(=O)[C@H]([C@@H](C)CC)NC(=O)[C@H](CC(C)C)N(C)C(=O)C[C@@H](C(=O)N2CCOCC2)N(C)C(=O)[C@H](C2CCCC2)N(C)C(=O)C2(CCCC2)NC(=O)[C@@H]2CC(F)(F)CN2C(=O)[C@H](CCc2ccc(C(F)(F)F)c(Cl)c2)NC(=O)CN(C)C(=O)[C@@H]1Cc1ccc(C(F)(F)F)cc1 [PP0399] ([NMeL]I[NEtG][Sar][NPrPhe(4-CF3)][Sar][hPhe(3-Cl-4-CF3)][Pro(4,4-F2)][Ac5c][NMeGly(cPent)][NMeD]-Morpholide; lactam N-11)",0.33,C (A compound having a KD ratio of 0.1 or more and less than 3 is denoted as C),B (a compound having 3 or more and less than 10 is denoted as B),,
"CCCN1C(=O)CN(C)C(=O)CN(CC)C(=O)[C@H]([C@@H](C)CC)NC(=O)[C@H](CC(C)C)N(C)C(=O)C[C@@H](C(=O)N2CCOCC2)N(C)C(=O)[C@H](C2CCCC2)N(C)C(=O)C2(CCC2)NC(=O)[C@@H]2CC(F)(F)CN2C(=O)[C@H](CCc2ccc(C(F)(F)F)c(Cl)c2)NC(=O)CN(C)C(=O)[C@@H]1Cc1ccc(C(F)(F)F)cc1 [PP0400] ([NMeL]I[NEtG][Sar][NPrPhe(4-CF3)][Sar][hPhe(3-Cl-4-CF3)][Pro(4,4-F2)][Ac4c][NMeGly(cPent)][NMeD]-Morpholide; lactam N-11)",0.17,B (a compound having 3 or more and less than 10 is denoted as B),B (a compound having 3 or more and less than 10 is denoted as B),,
CCCN1C(=O)CN(C)C(=O)CN(CC)C(=O)[C@H]([C@@H](C)CC)NC(=O)[C@H](CC(C)C)N(C)C(=O)C[C@@H](C(=O)N2CCOCC2)N(C)C(=O)[C@H](C2CCCC2)N(C)C(=O)C2(CCC2)NC(=O)[C@@H]2C[C@@H](OCC)CN2C(=O)[C@H](CCc2ccc(C(F)(F)F)c(Cl)c2)NC(=O)CN(C)C(=O)[C@@H]1Cc1ccc(C(F)(F)F)cc1 [PP0401] ([NMeL]I[NEtG][Sar][NPrPhe(4-CF3)][Sar][hPhe(3-Cl-4-CF3)][Hyp](Et)[Ac4c][NMeGly(cPent)][NMeD]-Morpholide; lactam N-11),0.15,B (a compound having 3 or more and less than 10 is denoted as B),B (a compound having 3 or more and less than 10 is denoted as B),,
"CCCN1C(=O)CN(C)C(=O)[C@@H]2CCN2C(=O)[C@H]([C@@H](C)CC)NC(=O)[C@H](CC(C)C)N(C)C(=O)C[C@@H](C(=O)N2CCOCC2)N(C)C(=O)[C@H](C2CCCC2)N(C)C(=O)C2(CCCC2)NC(=O)[C@@H]2CC(F)(F)CN2C(=O)[C@H](CCc2ccc(C(F)(F)F)c(Cl)c2)NC(=O)CN(C)C(=O)[C@@H]1Cc1ccc(C(F)(F)F)cc1 [PP0403] ([NMeL]I[Aze][Sar][NPrPhe(4-CF3)][Sar][hPhe(3-Cl-4-CF3)][Pro(4,4-F2)][Ac5c][NMeGly(cPent)][NMeD]-Morpholide; lactam N-11)",0.83,B (a compound having 3 or more and less than 10 is denoted as B),B (a compound having 3 or more and less than 10 is denoted as B),,

# Second part, led by results:
Kd [3] [nM],SMILES,HRAS/KRAS (ratio of KD value for HRAS to KD value for KRAS) [1],NRAS/KRAS (ratio of KD value for NRAS to KD value for KRAS) [2],HRAS/KRAS (ratio of KD value with respect to HRAS to KD value with respect to KRAS) [1],NRAS/KRAS (ratio of KD value with respect to NRAS to KD value with respect to KRAS) [2]
0.31,CCCN1C(=O)CN(C)C(=O)[C@@H]2CCN2C(=O)[C@H]([C@@H](C)CC)NC(=O)[C@H](CC(C)C)N(C)C(=O)C[C@@H](C(=O)N2CCOCC2)N(C)C(=O)[C@H](C2CCCC2)N(C)C(=O)C2(CCC2)NC(=O)[C@@H]2C[C@@H](OCC)CN2C(=O)[C@H](CCc2ccc(C(F)(F)F)c(Cl)c2)NC(=O)CN(C)C(=O)[C@@H]1Cc1ccc(C(F)(F)F)cc1 [PP0405] ([NMeL]I[Aze][Sar][NPrPhe(4-CF3)][Sar][hPhe(3-Cl-4-CF3)][Hyp](Et)[Ac4c][NMeGly(cPent)][NMeD]-Morpholide; lactam N-11),C (A compound having a KD ratio of 0.1 or more and less than 3 is denoted as C),B (a compound having 3 or more and less than 10 is denoted as B),,
0.042,CCCN1C(=O)[C@@H]2CCN2C(=O)[C@H](C)N(C)C(=O)[C@H]([C@@H](C)CC)NC(=O)[C@H](CC(C)C)N(C)C(=O)C[C@@H](C(=O)N2CCOCC2)N(C)C(=O)[C@H](C2CCCC2)N(C)C(=O)C2(CCC2)NC(=O)[C@@H]2C[C@@H](OCC)CN2C(=O)[C@H](CCc2ccc(C(F)(F)F)c(Cl)c2)NC(=O)CN(C)C(=O)[C@@H]1Cc1ccc(C(F)(F)F)cc1 [PP0406] ([NMeL]I[NMeA][Aze][NPrPhe(4-CF3)][Sar][hPhe(3-Cl-4-CF3)][Hyp](Et)[Ac4c][NMeGly(cPent)][NMeD]-Morpholide; lactam N-11),B (a compound having 3 or more and less than 10 is denoted as B),C (A compound having a KD ratio of 0.1 or more and less than 3 is denoted as C),,
0.094,"CCCN1C(=O)[C@@H]2CCN2C(=O)CN(C)C(=O)[C@H]([C@@H](C)CC)NC(=O)[C@H](CC(C)C)N(C)C(=O)C[C@@H](C(=O)N2CCOCC2)N(C)C(=O)[C@H](C2CCCC2)N(C)C(=O)C2(CCCC2)NC(=O)[C@@H]2CC(F)(F)CN2C(=O)[C@H](CCc2ccc(C(F)(F)F)c(Cl)c2)NC(=O)CN(C)C(=O)[C@@H]1Cc1ccc(C(F)(F)F)cc1 [PP0408] ([NMeL]I[Sar][Aze][NPrPhe(4-CF3)][Sar][hPhe(3-Cl-4-CF3)][Pro(4,4-F2)][Ac5c][NMeGly(cPent)][NMeD]-Morpholide; lactam N-11)",B (a compound having 3 or more and less than 10 is denoted as B),C (A compound having a KD ratio of 0.1 or more and less than 3 is denoted as C),,
0.056,"CCCN1C(=O)[C@@H]2CCN2C(=O)CN(C)C(=O)[C@H]([C@@H](C)CC)NC(=O)[C@H](CC(C)C)N(C)C(=O)C[C@@H](C(=O)N2CCOCC2)N(C)C(=O)[C@H](C2CCCC2)N(C)C(=O)C2(CCC2)NC(=O)[C@@H]2CC(F)(F)CN2C(=O)[C@H](CCc2ccc(C(F)(F)F)c(Cl)c2)NC(=O)CN(C)C(=O)[C@@H]1Cc1ccc(C(F)(F)F)cc1 [PP0409] ([NMeL]I[Sar][Aze][NPrPhe(4-CF3)][Sar][hPhe(3-Cl-4-CF3)][Pro(4,4-F2)][Ac4c][NMeGly(cPent)][NMeD]-Morpholide; lactam N-11)",,,C (A compound having a KD ratio of 0.1 or more and less than 3 is denoted as C),C (A compound having a KD ratio of 0.1 or more and less than 3 is denoted as C)
0.058,CCCN1C(=O)[C@@H]2CCN2C(=O)CN(C)C(=O)[C@H]([C@@H](C)CC)NC(=O)[C@H](CC(C)C)N(C)C(=O)C[C@@H](C(=O)N2CCOCC2)N(C)C(=O)[C@H](C2CCCC2)N(C)C(=O)C2(CCCC2)NC(=O)[C@@H]2C[C@@H](OCC)CN2C(=O)[C@H](CCc2ccc(C(F)(F)F)c(Cl)c2)NC(=O)CN(C)C(=O)[C@@H]1Cc1ccc(C(F)(F)F)cc1 [PP0410] ([NMeL]I[Sar][Aze][NPrPhe(4-CF3)][Sar][hPhe(3-Cl-4-CF3)][Hyp](Et)[Ac5c][NMeGly(cPent)][NMeD]-Morpholide; lactam N-11),,,B (a compound having 3 or more and less than 10 is denoted as B),C (A compound having a KD ratio of 0.1 or more and less than 3 is denoted as C)
0.046,CCCN1C(=O)[C@@H]2CCN2C(=O)CN(C)C(=O)[C@H]([C@@H](C)CC)NC(=O)[C@H](CC(C)C)N(C)C(=O)C[C@@H](C(=O)N2CCOCC2)N(C)C(=O)[C@H](C2CCCC2)N(C)C(=O)C2(CCC2)NC(=O)[C@@H]2C[C@@H](OCC)CN2C(=O)[C@H](CCc2ccc(C(F)(F)F)c(Cl)c2)NC(=O)CN(C)C(=O)[C@@H]1Cc1ccc(C(F)(F)F)cc1 [PP0411] ([NMeL]I[Sar][Aze][NPrPhe(4-CF3)][Sar][hPhe(3-Cl-4-CF3)][Hyp](Et)[Ac4c][NMeGly(cPent)][NMeD]-Morpholide; lactam N-11),,,C (A compound having a KD ratio of 0.1 or more and less than 3 is denoted as C),C (A compound having a KD ratio of 0.1 or more and less than 3 is denoted as C)
